# In the supplement of paper PMC10307832:
# Columns and labels:
# Test in all cases: relative viability (nuclei count vs DMSO), 5 days (fraction); higher = more cells survive
# [1] = compound: COc1cc(-c2nn([C@H]3CC[C@H](N4CCN(C(C)=O)CC4)CC3)c3ncnc(N)c23)ccc1NC(=O)c1cc2ccccc2n1C + C[C@]1(O)C[C@@H](c2nc(-c3ccc4ccc(-c5ccccc5)nc4c3)c3c(N)nccn32)C1 [Linsitinib] (partner 1 µM)
# In short: (§1)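 For relative viability, nuclei counts in treated wells were divided by those in vehicle wells. Lung cancer cell lines had been pin-tool dosed in 1536-well plates the day after seeding and cultured for 5 days, then fixed and stained in one step (final 0.05% Triton X-100, 1% formaldehyde, 1 ug/ml Hoechst) and imaged at 4×. Doses were one drug alone or a fixed anchor-drug dose plus five library-drug doses (not always all listed) in √10 steps, and values are duplicate-plate medians.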
# Midostaurin + Phenformin = compound: CO[C@@H]1[C@H](N(C)C(=O)c2ccccc2)C[C@H]2O[C@]1(C)n1c3ccccc3c3c4c(c5c6ccccc6n2c5c31)C(=O)NC4 [Midostaurin] + N=C(N)NC(=N)NCCc1ccccc1 [Phenformin] (partner 250 µM)
# In short: as §1
# Midostaurin + Decitabine = compound: CO[C@@H]1[C@H](N(C)C(=O)c2ccccc2)C[C@H]2O[C@]1(C)n1c3ccccc3c3c4c(c5c6ccccc6n2c5c31)C(=O)NC4 [Midostaurin] + Nc1ncn([C@H]2C[C@H](O)[C@@H](CO)O2)c(=O)n1 [Decitabine] (partner 2 µM)
# In short: as §1
# Midostaurin + Luminespib = compound: CO[C@@H]1[C@H](N(C)C(=O)c2ccccc2)C[C@H]2O[C@]1(C)n1c3ccccc3c3c4c(c5c6ccccc6n2c5c31)C(=O)NC4 [Midostaurin] + CCNC(=O)c1noc(-c2cc(C(C)C)c(O)cc2O)c1-c1ccc(CN2CCOCC2)cc1 [Luminespib] (partner 0.01 µM)
# In short: as §1
# Midostaurin + Pictilisib = compound: CO[C@@H]1[C@H](N(C)C(=O)c2ccccc2)C[C@H]2O[C@]1(C)n1c3ccccc3c3c4c(c5c6ccccc6n2c5c31)C(=O)NC4 [Midostaurin] + CS(=O)(=O)N1CCN(Cc2cc3nc(-c4cccc5[nH]ncc45)nc(N4CCOCC4)c3s2)CC1 [Pictilisib] (partner 1 µM)
# In short: as §1
cell line,measurement,setting,value
LCLC-97TM1,relative viability,[1]; first compound 0.0128 µM,0.183
same,relative viability,[1]; first compound 0.04048 µM,0.205
same,relative viability,[1]; first compound 0.128 µM,0.173
same,relative viability,[1]; first compound 1.28 µM,0.238
same,relative viability,Midostaurin + Phenformin; first compound 0.01 µM,0.434
same,relative viability,Midostaurin + Phenformin; first compound 0.03162 µM,0.324
same,relative viability,Midostaurin + Phenformin; first compound 0.1 µM,0.38
same,relative viability,Midostaurin + Phenformin; first compound 0.3162 µM,0.415
same,relative viability,Midostaurin + Decitabine; first compound 0.01 µM,0.215
same,relative viability,Midostaurin + Decitabine; first compound 0.03162 µM,0.239
same,relative viability,Midostaurin + Decitabine; first compound 0.1 µM,0.25
same,relative viability,Midostaurin + Decitabine; first compound 0.3162 µM,0.242
same,relative viability,Midostaurin + Luminespib; first compound 0.01 µM,0.836
same,relative viability,Midostaurin + Luminespib; first compound 0.03162 µM,0.713
same,relative viability,Midostaurin + Luminespib; first compound 0.1 µM,0.749
same,relative viability,Midostaurin + Luminespib; first compound 0.3162 µM,0.763
same,relative viability,Midostaurin + Pictilisib; first compound 0.01 µM,0.199
same,relative viability,Midostaurin + Pictilisib; first compound 0.1 µM,0.163
same,relative viability,Midostaurin + Pictilisib; first compound 0.3162 µM,0.313
EPLC-272H,relative viability,[1]; first compound 0.0128 µM,1.45
same,relative viability,[1]; first compound 0.04048 µM,1.21
same,relative viability,[1]; first compound 0.128 µM,0.878
same,relative viability,[1]; first compound 1.28 µM,1.04
same,relative viability,Midostaurin + Phenformin; first compound 0.01 µM,0.31
same,relative viability,Midostaurin + Phenformin; first compound 0.1 µM,0.282
same,relative viability,Midostaurin + Phenformin; first compound 0.3162 µM,0.303
same,relative viability,Midostaurin + Decitabine; first compound 0.01 µM,0.35
same,relative viability,Midostaurin + Decitabine; first compound 0.03162 µM,0.332
same,relative viability,Midostaurin + Decitabine; first compound 0.1 µM,0.356
same,relative viability,Midostaurin + Decitabine; first compound 0.3162 µM,0.345
same,relative viability,Midostaurin + Luminespib; first compound 0.01 µM,0.323
same,relative viability,Midostaurin + Luminespib; first compound 0.1 µM,0.333
same,relative viability,Midostaurin + Luminespib; first compound 0.3162 µM,0.48
same,relative viability,Midostaurin + Pictilisib; first compound 0.01 µM,0.338
same,relative viability,Midostaurin + Pictilisib; first compound 0.03162 µM,0.305
same,relative viability,Midostaurin + Pictilisib; first compound 0.1 µM,0.295
same,relative viability,Midostaurin + Pictilisib; first compound 0.3162 µM,0.298
NCI-H1915,relative viability,[1]; first compound 0.0128 µM,1.17
same,relative viability,[1]; first compound 0.04048 µM,1.13
same,relative viability,[1]; first compound 0.128 µM,1.11
same,relative viability,[1]; first compound 1.28 µM,1.03
same,relative viability,Midostaurin + Phenformin; first compound 0.01 µM,0.35
same,relative viability,Midostaurin + Phenformin; first compound 0.03162 µM,0.348
same,relative viability,Midostaurin + Phenformin; first compound 0.1 µM,0.352
same,relative viability,Midostaurin + Phenformin; first compound 0.3162 µM,0.352
same,relative viability,Midostaurin + Decitabine; first compound 0.01 µM,0.264
same,relative viability,Midostaurin + Decitabine; first compound 0.03162 µM,0.26
same,relative viability,Midostaurin + Decitabine; first compound 0.1 µM,0.255
same,relative viability,Midostaurin + Decitabine; first compound 0.3162 µM,0.255
same,relative viability,Midostaurin + Luminespib; first compound 0.01 µM,0.711
same,relative viability,Midostaurin + Luminespib; first compound 0.03162 µM,0.75
same,relative viability,Midostaurin + Luminespib; first compound 0.1 µM,0.613
same,relative viability,Midostaurin + Luminespib; first compound 0.3162 µM,0.797
same,relative viability,Midostaurin + Pictilisib; first compound 0.01 µM,0.913
same,relative viability,Midostaurin + Pictilisib; first compound 0.03162 µM,0.852
same,relative viability,Midostaurin + Pictilisib; first compound 0.1 µM,1.01
same,relative viability,Midostaurin + Pictilisib; first compound 0.3162 µM,0.98
NCI-H2405,relative viability,[1]; first compound 0.0128 µM,0.886
same,relative viability,[1]; first compound 0.04048 µM,0.541
same,relative viability,[1]; first compound 0.128 µM,0.721
same,relative viability,[1]; first compound 1.28 µM,0.326
same,relative viability,Midostaurin + Phenformin; first compound 0.01 µM,0.415
same,relative viability,Midostaurin + Phenformin; first compound 0.03162 µM,0.441
same,relative viability,Midostaurin + Phenformin; first compound 0.1 µM,0.377
same,relative viability,Midostaurin + Phenformin; first compound 0.3162 µM,0.491
same,relative viability,Midostaurin + Decitabine; first compound 0.01 µM,0.721
same,relative viability,Midostaurin + Decitabine; first compound 0.03162 µM,0.8
same,relative viability,Midostaurin + Decitabine; first compound 0.1 µM,0.774
same,relative viability,Midostaurin + Decitabine; first compound 0.3162 µM,0.778
same,relative viability,Midostaurin + Luminespib; first compound 0.01 µM,0.729
same,relative viability,Midostaurin + Luminespib; first compound 0.03162 µM,0.704
same,relative viability,Midostaurin + Luminespib; first compound 0.1 µM,0.64
same,relative viability,Midostaurin + Luminespib; first compound 0.3162 µM,0.45
same,relative viability,Midostaurin + Pictilisib; first compound 0.01 µM,0.464
same,relative viability,Midostaurin + Pictilisib; first compound 0.03162 µM,0.516
same,relative viability,Midostaurin + Pictilisib; first compound 0.3162 µM,0.379
NCI-H322M,relative viability,[1]; first compound 0.0128 µM,0.9
same,relative viability,[1]; first compound 0.04048 µM,0.909
same,relative viability,[1]; first compound 0.128 µM,0.767
same,relative viability,[1]; first compound 1.28 µM,0.803
same,relative viability,Midostaurin + Phenformin; first compound 0.01 µM,0.831
same,relative viability,Midostaurin + Phenformin; first compound 0.03162 µM,0.673
same,relative viability,Midostaurin + Phenformin; first compound 0.1 µM,0.811
same,relative viability,Midostaurin + Phenformin; first compound 0.3162 µM,0.875
same,relative viability,Midostaurin + Decitabine; first compound 0.01 µM,0.638
same,relative viability,Midostaurin + Decitabine; first compound 0.03162 µM,0.673
same,relative viability,Midostaurin + Decitabine; first compound 0.1 µM,0.651
same,relative viability,Midostaurin + Decitabine; first compound 0.3162 µM,0.715
same,relative viability,Midostaurin + Luminespib; first compound 0.01 µM,0.826
same,relative viability,Midostaurin + Luminespib; first compound 0.03162 µM,0.829
same,relative viability,Midostaurin + Luminespib; first compound 0.1 µM,0.969
same,relative viability,Midostaurin + Luminespib; first compound 0.3162 µM,1.23
same,relative viability,Midostaurin + Pictilisib; first compound 0.01 µM,0.52
same,relative viability,Midostaurin + Pictilisib; first compound 0.03162 µM,0.493
same,relative viability,Midostaurin + Pictilisib; first compound 0.1 µM,0.5
same,relative viability,Midostaurin + Pictilisib; first compound 0.3162 µM,0.594
NCI-H1395,relative viability,[1]; first compound 0.0128 µM,0.965
same,relative viability,[1]; first compound 0.04048 µM,1.21
same,relative viability,[1]; first compound 0.128 µM,0.916
same,relative viability,[1]; first compound 1.28 µM,0.768
same,relative viability,Midostaurin + Phenformin; first compound 0.01 µM,0.459
same,relative viability,Midostaurin + Phenformin; first compound 0.03162 µM,0.459
same,relative viability,Midostaurin + Phenformin; first compound 0.1 µM,0.488
same,relative viability,Midostaurin + Phenformin; first compound 0.3162 µM,0.523
same,relative viability,Midostaurin + Decitabine; first compound 0.01 µM,0.681
same,relative viability,Midostaurin + Decitabine; first compound 0.03162 µM,0.81
same,relative viability,Midostaurin + Decitabine; first compound 0.1 µM,0.712
same,relative viability,Midostaurin + Decitabine; first compound 0.3162 µM,0.702
same,relative viability,Midostaurin + Luminespib; first compound 0.01 µM,0.837
same,relative viability,Midostaurin + Luminespib; first compound 0.03162 µM,0.702
same,relative viability,Midostaurin + Luminespib; first compound 0.1 µM,0.573
same,relative viability,Midostaurin + Luminespib; first compound 0.3162 µM,0.665
same,relative viability,Midostaurin + Pictilisib; first compound 0.01 µM,0.592
same,relative viability,Midostaurin + Pictilisib; first compound 0.03162 µM,0.588
same,relative viability,Midostaurin + Pictilisib; first compound 0.1 µM,0.588
same,relative viability,Midostaurin + Pictilisib; first compound 0.3162 µM,0.615
NCI-H358,relative viability,[1]; first compound 0.0128 µM,0.664
same,relative viability,[1]; first compound 0.04048 µM,0.73
same,relative viability,[1]; first compound 0.128 µM,0.681
same,relative viability,[1]; first compound 1.28 µM,0.462
same,relative viability,Midostaurin + Phenformin; first compound 0.01 µM,0.404
same,relative viability,Midostaurin + Phenformin; first compound 0.03162 µM,0.331
same,relative viability,Midostaurin + Phenformin; first compound 0.1 µM,0.371
same,relative viability,Midostaurin + Phenformin; first compound 0.3162 µM,0.353
same,relative viability,Midostaurin + Decitabine; first compound 0.01 µM,0.228
same,relative viability,Midostaurin + Decitabine; first compound 0.03162 µM,0.236
same,relative viability,Midostaurin + Decitabine; first compound 0.1 µM,0.231
same,relative viability,Midostaurin + Decitabine; first compound 0.3162 µM,0.25
same,relative viability,Midostaurin + Luminespib; first compound 0.01 µM,0.241
same,relative viability,Midostaurin + Luminespib; first compound 0.03162 µM,0.309
same,relative viability,Midostaurin + Luminespib; first compound 0.1 µM,0.263
same,relative viability,Midostaurin + Luminespib; first compound 0.3162 µM,0.298
same,relative viability,Midostaurin + Pictilisib; first compound 0.01 µM,0.437
same,relative viability,Midostaurin + Pictilisib; first compound 0.03162 µM,0.222
same,relative viability,Midostaurin + Pictilisib; first compound 0.1 µM,0.308
same,relative viability,Midostaurin + Pictilisib; first compound 0.3162 µM,0.432
NCI-H838,relative viability,[1]; first compound 0.0128 µM,0.974
same,relative viability,[1]; first compound 0.04048 µM,1.1
same,relative viability,[1]; first compound 0.128 µM,1.06
same,relative viability,[1]; first compound 1.28 µM,0.657
same,relative viability,Midostaurin + Phenformin; first compound 0.01 µM,0.704
same,relative viability,Midostaurin + Phenformin; first compound 0.03162 µM,0.551
same,relative viability,Midostaurin + Phenformin; first compound 0.1 µM,0.397
same,relative viability,Midostaurin + Phenformin; first compound 0.3162 µM,0.274
same,relative viability,Midostaurin + Decitabine; first compound 0.01 µM,0.478
same,relative viability,Midostaurin + Decitabine; first compound 0.03162 µM,0.447
same,relative viability,Midostaurin + Decitabine; first compound 0.1 µM,0.385
same,relative viability,Midostaurin + Decitabine; first compound 0.3162 µM,0.328
same,relative viability,Midostaurin + Luminespib; first compound 0.01 µM,0.32
same,relative viability,Midostaurin + Luminespib; first compound 0.03162 µM,0.362
same,relative viability,Midostaurin + Luminespib; first compound 0.1 µM,0.322
same,relative viability,Midostaurin + Luminespib; first compound 0.3162 µM,0.299
same,relative viability,Midostaurin + Pictilisib; first compound 0.01 µM,0.565
same,relative viability,Midostaurin + Pictilisib; first compound 0.03162 µM,0.48
same,relative viability,Midostaurin + Pictilisib; first compound 0.1 µM,0.302
same,relative viability,Midostaurin + Pictilisib; first compound 0.3162 µM,0.276
